The numbers were not newly measured in patent publication US10881127B1, “Manufacturing method of water-solubilized solution of mastic resin” (VENN SKINCARE, INC., priority 2019, dated 2021), which cites them from elsewhere.

Structures are written as SMILES.

For this series the following is noted: in room temperature or in water.

With `O=C1O[C@H]([C@@H](O)CO)C(O)=C1O` [L-ascorbic acid], the “stability of L-ascorbic acid” value was “easily oxidized and broken”.
